In ChEMBL document CHEMBL1201862, “PubChem BioAssay data set” (2004):
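Five compound concentrations were applied to cells in 96-well plates for 48 hours; endpoints were derived by simple linear interpolation of the resulting dose-response curve. Abbreviation: GI50, concentration required for 50% inhibition of growth.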 Active and inactive are the calls of the source. Cut-off read from the data, not from the text of the source: active = GI50 up to about 1.1 µM and inactive = higher.

Legend:
Experiment in all cases: NCI anticancer screen, dose series, 48 h
[1] = system: BT-549
[2] = system: CCRF-CEM
[3] = system: COLO 205
[4] = system: HOP-92
[5] = system: Hs-578T
[6] = system: K562
[7] = system: LOX IMVI
[8] = system: MDA-N
[9] = system: MOLT-4
[10] = system: NCI-H460
[11] = system: NCI-H522
[12] = system: RPMI-8226
[13] = system: RXF 393
[14] = system: SF-539
[15] = system: SK-MEL-28
[16] = system: SK-OV-3
[17] = system: TK-10
[18] = system: U-251
[19] = system: UACC-62
[20] = system: UO-31

SMILES	GI50 [1]	GI50 [2]	GI50 [3]	GI50 [4]	GI50 [5]	GI50 [6]	GI50 [7]	GI50 [8]	GI50 [9]	GI50 [10]	GI50 [11]	GI50 [12]	GI50 [13]	GI50 [14]	GI50 [15]	GI50 [16]	GI50 [17]	GI50 [18]	GI50 [19]	GI50 [20]
COc1ccc(CCN2COc3ccc4ccc(=O)oc4c3C2)cc1OC	> 100 µM (inactive)	23.7 µM (inactive)	> 100 µM (inactive)	21 µM (inactive)	> 100 µM (inactive)	50.4 µM (inactive)	20.9 µM (inactive)	> 100 µM (inactive)	> 100 µM (inactive)	66.8 µM (inactive)	> 100 µM (inactive)	22.4 µM (inactive)	85.7 µM (inactive)	> 100 µM (inactive)	> 100 µM (inactive)	> 100 µM (inactive)	> 100 µM (inactive)	88.9 µM (inactive)	50.2 µM (inactive)	> 100 µM (inactive)
O=C1C=CC(=O)c2c1ccc1c3ccccc3n(Cc3cccc([N+](=O)[O-])c3)c21	40.1 µM (inactive)	8.36 µM (inactive)	14.3 µM (inactive)	20.1 µM (inactive)	> 71.9 µM (inactive)	6.92 µM (inactive)	33.9 µM (inactive)	16 µM (inactive)	8.65 µM (inactive)	> 95.9 µM (inactive)	18.8 µM (inactive)	17.8 µM (inactive)	22.5 µM (inactive)	> 54 µM (inactive)	> 43.6 µM (inactive)	> 100 µM (inactive)	20 µM (inactive)	> 89.5 µM (inactive)	> 46 µM (inactive)	50 µM (inactive)
CC(=O)N1c2ccccc2[C@H]2CCc3c([nH]c4ccccc34)[C@H]21	11 µM (inactive)	11.6 µM (inactive)	13.2 µM (inactive)	14.4 µM (inactive)	21.9 µM (inactive)	8.57 µM (inactive)	11.6 µM (inactive)	18.5 µM (inactive)	11.2 µM (inactive)	8.39 µM (inactive)	20.4 µM (inactive)	6.27 µM (inactive)	13.2 µM (inactive)	11.8 µM (inactive)	14.7 µM (inactive)	28.3 µM (inactive)	41.5 µM (inactive)	12.7 µM (inactive)	12.3 µM (inactive)	6.31 µM (inactive)
COc1cc(C2c3cc4c(cc3OC3(OC)COC(=O)C23)OCO4)cc(OC)c1OC(C)=O (stereo not given)	5 µM (inactive)	2.24 µM (inactive)	3.87 µM (inactive)	51.2 µM (inactive)	0.54 µM (active)	1.04 µM (active)	0.656 µM (active)	0.206 µM (active)	3.96 µM (inactive)	0.705 µM (active)	0.263 µM (active)	1.81 µM (inactive)	0.499 µM (active)	0.374 µM (active)	2.27 µM (inactive)	1.66 µM (inactive)	19.3 µM (inactive)	2.13 µM (inactive)	4.78 µM (inactive)	6.28 µM (inactive)
CC1(C)COC2=C(C1)C(=O)c1ccccc1C2=O	1.85 µM (inactive)	2.37 µM (inactive)	2.2 µM (inactive)	2.3 µM (inactive)	2.88 µM (inactive)	0.102 µM (active)	1.88 µM (inactive)	0.182 µM (active)	1.5 µM (inactive)	1.91 µM (inactive)	1.85 µM (inactive)	1.32 µM (inactive)	2.02 µM (inactive)	1.54 µM (inactive)	1.64 µM (inactive)	1.88 µM (inactive)	1.7 µM (inactive)	1.43 µM (inactive)	1.09 µM (active)	1.04 µM (active)
Cn1c(CC(O)c2nc3ccccc3n2C)nc2ccccc21 (stereo not given)	> 34.4 µM (inactive)	2.65 µM (inactive)	> 28.4 µM (inactive)	> 24.4 µM (inactive)	> 14.5 µM (inactive)	> 9.51 µM (inactive)	> 28.8 µM (inactive)	> 100 µM (inactive)	> 13.7 µM (inactive)	> 27.4 µM (inactive)	> 6.1 µM (inactive)	> 11.5 µM (inactive)	> 24.7 µM (inactive)	> 39.1 µM (inactive)	> 32.9 µM (inactive)	> 30.4 µM (inactive)	> 25.1 µM (inactive)	> 28 µM (inactive)	> 34.8 µM (inactive)	> 6.37 µM (inactive)
O=C1C=CC(=O)c2cc(Sc3ccccc3)c(=O)ccc21	17.9 µM (inactive)	1.76 µM (inactive)	7.73 µM (inactive)	10.4 µM (inactive)	27.4 µM (inactive)	2.49 µM (inactive)	13.1 µM (inactive)	16.9 µM (inactive)	2.24 µM (inactive)	22 µM (inactive)	2.32 µM (inactive)	4.46 µM (inactive)	12.3 µM (inactive)	19.8 µM (inactive)	18 µM (inactive)	26 µM (inactive)	17.1 µM (inactive)	17 µM (inactive)	15.5 µM (inactive)	11.7 µM (inactive)
CCOC(=O)/C=C(/C(=O)OCC)n1ccc(=O)n(/C(=C/C(=O)OCC)C(=O)OCC)c1=O	15.3 µM (inactive)	1.37 µM (inactive)	1.95 µM (inactive)	2.07 µM (inactive)	20.9 µM (inactive)	2.99 µM (inactive)	5.19 µM (inactive)	13.5 µM (inactive)	1.76 µM (inactive)	17.3 µM (inactive)	1.61 µM (inactive)	2.7 µM (inactive)	3.68 µM (inactive)	18.1 µM (inactive)	13.1 µM (inactive)	23.6 µM (inactive)	7.08 µM (inactive)	14.6 µM (inactive)	14.8 µM (inactive)	15.5 µM (inactive)
O=C(CN(c1ccc(S(=O)(=O)O)cc1)c1ccc(S(=O)(=O)O)cc1)Nn1cnc2ccc(S(=O)(=O)N(c3ccc(S(=O)(=O)O)cc3)c3ccc(S(=O)(=O)O)cc3)cc2c1=O	> 100 µM (inactive)	> 100 µM (inactive)	> 100 µM (inactive)	> 100 µM (inactive)	> 100 µM (inactive)	> 100 µM (inactive)	> 100 µM (inactive)	> 100 µM (inactive)	> 100 µM (inactive)	> 100 µM (inactive)	> 100 µM (inactive)	> 100 µM (inactive)	> 100 µM (inactive)	> 100 µM (inactive)	> 100 µM (inactive)	> 100 µM (inactive)	> 100 µM (inactive)	> 100 µM (inactive)	> 100 µM (inactive)	> 100 µM (inactive)
C[C@@H]1CC[C@@]2(C)[C@H](C)/C(=C\COC(=O)/C=C/c3ccc(O)c(O)c3)CC[C@@]12C [NAVICULYL CAFFEATE]	14.6 µM (inactive)	1.11 µM (active)	3.61 µM (inactive)	14.1 µM (inactive)	13.2 µM (inactive)	4.99 µM (inactive)	6.01 µM (inactive)	3.42 µM (inactive)	2.26 µM (inactive)	3.57 µM (inactive)	1.28 µM (inactive)	2.21 µM (inactive)	15.7 µM (inactive)	4.83 µM (inactive)	10.8 µM (inactive)	12.4 µM (inactive)	3.5 µM (inactive)	5.35 µM (inactive)	10.3 µM (inactive)	8.73 µM (inactive)
Cc1nn2c(=O)c([N+](=O)[O-])c(/C=C/c3ccccc3)nc2s1	2.37 µM (inactive)	2.21 µM (inactive)	5.14 µM (inactive)	8.28 µM (inactive)	7.33 µM (inactive)	2.56 µM (inactive)	1.57 µM (inactive)	2.4 µM (inactive)	2.98 µM (inactive)	5.61 µM (inactive)	3.3 µM (inactive)	2.43 µM (inactive)	3.41 µM (inactive)	2.3 µM (inactive)	5.33 µM (inactive)	7.33 µM (inactive)	7.31 µM (inactive)	2.42 µM (inactive)	5.33 µM (inactive)	5.83 µM (inactive)
CN1Cc2c(ccc3c2OCO3)[C@@H]2[C@H](O)Cc3cc4c(cc3[C@@H]21)OCO4	2.55 µM (inactive)	2.82 µM (inactive)	2.2 µM (inactive)	46.5 µM (inactive)	3.59 µM (inactive)	2.61 µM (inactive)	4.51 µM (inactive)	0.435 µM (active)	3.08 µM (inactive)	3.01 µM (inactive)	2.92 µM (inactive)	4.39 µM (inactive)	2.72 µM (inactive)	2.07 µM (inactive)	4.98 µM (inactive)	3.16 µM (inactive)	5.46 µM (inactive)	3.19 µM (inactive)	3.05 µM (inactive)	6.28 µM (inactive)
C=C1C(C)C2C(Cc3ccccc3)NC(=O)C23C(OC(C)=O)/C=C/C(C)(O)CC(C)C/C=C/C3C1O (stereo not given)	2.67 µM (inactive)	1.03 µM (active)	0.104 µM (active)	0.154 µM (active)	0.0129 µM (active)	23.3 µM (inactive)	0.0593 µM (active)	> 100 µM (inactive)	5.15 µM (inactive)	0.29 µM (active)	2.26 µM (inactive)	9.42 µM (inactive)	0.0394 µM (active)	0.0836 µM (active)	3.94 µM (inactive)	0.242 µM (active)	60.1 µM (inactive)	0.0679 µM (active)	18.2 µM (inactive)	0.0618 µM (active)
COC(=O)C(CC(C)C)NC(=O)C(NC(=O)c1ccc(-c2ccc(Cl)cc2Cl)o1)C(C)C (stereo not given)	30 µM (inactive)	12.2 µM (inactive)	17.7 µM (inactive)	14.2 µM (inactive)	27.5 µM (inactive)	16 µM (inactive)	15.7 µM (inactive)	20.2 µM (inactive)	12.9 µM (inactive)	14.9 µM (inactive)	23.2 µM (inactive)	11.6 µM (inactive)	14.8 µM (inactive)	29.2 µM (inactive)	33.4 µM (inactive)	30.8 µM (inactive)	27.4 µM (inactive)	17.9 µM (inactive)	13.1 µM (inactive)	29 µM (inactive)
